Reference: ChEMBL document CHEMBL5728675, “5-alkyl pyrrolidine orexin receptor agonists” (2021)

Target: T1, Orexin receptor type 2 (Homo sapiens, UniProt O43614)
T1 sequence (O43614 whole entry): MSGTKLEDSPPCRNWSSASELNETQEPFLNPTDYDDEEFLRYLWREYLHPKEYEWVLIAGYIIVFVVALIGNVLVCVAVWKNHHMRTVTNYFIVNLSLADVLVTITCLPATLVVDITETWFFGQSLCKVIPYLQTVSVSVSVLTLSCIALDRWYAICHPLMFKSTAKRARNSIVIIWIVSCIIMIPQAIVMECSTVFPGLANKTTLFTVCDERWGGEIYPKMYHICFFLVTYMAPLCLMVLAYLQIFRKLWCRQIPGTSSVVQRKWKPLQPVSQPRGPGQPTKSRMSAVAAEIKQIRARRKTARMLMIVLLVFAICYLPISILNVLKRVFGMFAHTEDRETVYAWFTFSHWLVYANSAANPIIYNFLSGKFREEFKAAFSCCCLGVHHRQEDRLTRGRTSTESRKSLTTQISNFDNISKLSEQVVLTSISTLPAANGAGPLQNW
Assay: Receptor Activity Assay: In a typical experiment, the OX1 and OX2 receptor agonist activity is determined in accordance with the following general experimental method.

Compound | IC50 [nM]
CC[C@@H]1C[C@H](NS(C)(=O)=O)[C@H](CO[C@H]2CC[C@@H](c3ccccc3)CC2)N1C(=O)OC | 3
COC(=O)N1[C@H](C)C[C@H](NS(C)(=O)=O)[C@@H]1CO[C@H]1CC[C@@H](c2ccccc2C(F)(F)F)CC1 | 6.82
CC[C@H]1C[C@@H](NS(C)(=O)=O)[C@@H](CO[C@H]2CC[C@@H](c3ccccc3)CC2)N1C(=O)OC | 7330
COC(=O)N1[C@H](C)C[C@H](NS(=O)(=O)N(C)C)[C@@H]1CO[C@@H]1CC[C@H](c2cccc(F)c2)CC1F (stereo partly specified) | 3.63
CCc1ccccc1[C@H]1CC[C@@H](OC[C@H]2[C@@H](NS(=O)(=O)N(C)C)C[C@@H](C)N2C(=O)OC)CC1 | 2.2
COC(=O)N1[C@H](C)C[C@H](NS(C)(=O)=O)[C@@H]1CO[C@H]1CC[C@@H](c2c(F)ccc(F)c2F)CC1 | 1.07
CCc1ccccc1[C@H]1CC[C@H](OC[C@H]2[C@@H](NS(=O)(=O)N(C)C)C[C@@H](C)N2C(=O)OC)CC1 | 111
COC(=O)N1[C@H](C)C[C@H](NS(=O)(=O)CF)[C@@H]1COC1CCC(c2cccc(F)c2)CC1 (stereo partly specified) | 1.4
COC(=O)N1[C@H](C)C[C@H](NS(=O)(=O)N(C)C)[C@@H]1CO[C@@H]1CC[C@H](c2ccccc2)CC1F (stereo partly specified) | 10.8
C=C[C@@H]1C[C@H](NS(C)(=O)=O)[C@H](CO[C@H]2CC[C@@H](c3ccccc3)CC2)N1C(=O)OC (relative stereo) | 9.4
COC(=O)N1[C@H](C)C[C@H](NS(=O)(=O)CC(F)F)[C@@H]1CO[C@H]1CC[C@@H](c2cccc(F)c2)CC1 | 5.2
COCCS(=O)(=O)N[C@H]1C[C@@H](C)N(C(=O)OC)[C@H]1COC1CCC(c2cccc(F)c2)CC1 (stereo partly specified) | 4.6
COC(=O)N1[C@H](C)C[C@H](NS(C)(=O)=O)[C@@H]1CO[C@H]1CC[C@@H](c2cc(F)ccc2F)CC1 | 1.67
COC(=O)N1[C@H](C)C[C@H](NS(C)(=O)=O)[C@@H]1CO[C@H]1CC[C@@H](C(C)C)CC1 | 17.7
CC(C)OC(=O)N1[C@H](C)C[C@H](NS(=O)(=O)N(C)C)[C@@H]1COC1CCN(c2ncc(F)cn2)CC1 | 1.15
COC(=O)N1[C@H](C)C[C@H](NS(=O)(=O)N(C)C)[C@@H]1CO[C@H]1CC[C@H](c2ccc(C#N)c(C)c2)CC1 | 12.5
COC(=O)N1[C@H](C)C[C@H](NS(C)(=O)=O)[C@@H]1CO[C@H]1CC[C@@H](c2ccc(F)c(F)c2)CC1 | 25.5
COC(=O)N1[C@H](C)C[C@H](NS(=O)(=O)N(C)C)[C@@H]1CO[C@H]1CC[C@@H](c2cc(F)ccc2F)CC1 | 0.47
COC(=O)N1[C@H](C)C[C@H](NS(=O)(=O)CF)[C@@H]1CO[C@H]1CC[C@@H](c2ccccc2)CC1 | 0.93
COC(=O)N1[C@H](C)C[C@H](NS(=O)(=O)N(C)C)[C@@H]1CO[C@H]1CC[C@@H](c2ccccc2F)CC1 | 0.92
COC(=O)N1C(C2CC2)C[C@H](NS(C)(=O)=O)C1COC1CCC(c2ccccc2)CC1 (stereo partly specified) | 73.5
COC(=O)N1[C@H](C)C[C@H](NS(=O)(=O)N(C)C)[C@@H]1CO[C@H]1CC[C@@H](c2cc(F)cc(F)c2)CC1 | 0.52
COC[C@@H]1C[C@H](NS(=O)(=O)N(C)C)[C@H](CO[C@H]2CC[C@@H](c3cccc(F)c3)CC2)N1C(=O)OC | 0.7
C[C@@H]1C[C@H](NS(=O)(=O)N(C)C)[C@H](CO[C@H]2CC[C@@H](c3cc(F)ccc3F)CC2)N1C(=O)OCC(F)F | 0.66
COC(=O)N1[C@H](C)C[C@H](NS(=O)(=O)N(C)CC#N)[C@@H]1CO[C@H]1CC[C@@H](c2cccc(F)c2)CC1 | 0.6
COC(=O)N1[C@H](C)C[C@H](NS(=O)(=O)N(C)C)[C@@H]1CO[C@H]1CC[C@@H](c2ccc(C#N)c(C)c2)CC1 | 1.1
